Laboratory results published in patent US20080269213A1, “8-Hydroxyquinoline compounds and methods thereof” (Wyeth, priority 2006, published 2008).

Legend:
[1] = molecular target: T1, recombinant human Aggrecanase-2 Agg2-Phe628 (Homo sapiens, UniProt Q9UNA0); assay: Aggrecanase 2 enzyme fluorescence polarization assay; assay type: binding; parameters: recombinant human Aggrecanase-2, Agg2-Phe628 (41737 Da); This is a truncated form of full-length human aggrecanase-2; made in house
T1 sequence (Q9UNA0 262-628 limits assumed): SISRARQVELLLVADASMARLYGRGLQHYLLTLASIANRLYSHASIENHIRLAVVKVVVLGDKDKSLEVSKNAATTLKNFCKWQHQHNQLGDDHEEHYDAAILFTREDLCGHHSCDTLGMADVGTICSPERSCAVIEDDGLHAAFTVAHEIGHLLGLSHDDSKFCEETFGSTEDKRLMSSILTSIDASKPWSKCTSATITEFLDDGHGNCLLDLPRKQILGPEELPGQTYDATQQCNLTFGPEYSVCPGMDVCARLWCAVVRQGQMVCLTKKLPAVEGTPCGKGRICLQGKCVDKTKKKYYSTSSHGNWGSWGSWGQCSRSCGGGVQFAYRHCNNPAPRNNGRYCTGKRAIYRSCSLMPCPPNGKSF
Description: The fluorescence polarization assay is used to determine the dissociation constant of the enzyme:inhibitor complex (Ki) and the binding interaction mode (competitive, non-competitive or uncompetitive) of reversible inhibitors. The fluorescence polarization assay monitors the rotational motion of the fluorescent ligand. In the free state the fluorescent ligand has high rotational motion corresponding to a low polarization value and when fully bound to the protein, the fluorescent ligand has a lower rotational motion, corresponding to a higher polarization value. […]
Stock solutions of the fluorescent ligand are prepared in 100% DMSO and aliquots are stored at −80° C. The stock concentration was determined by a NMR ratio method, comparing the area under the control compound peak (TSP; trimethyl silyl proprionate sodium salt) to the area under a well-defined sample peak.
To determine the dissociation constant between Aggrecanase-2 and Compound C, saturation experiments were performed by adding various concentrations of aggrecanase to a constant concentration of Compound C (2 nM), in the assay buffer 50 mM HEPES-NaOH (pH 7.4), 100 mM NaCl, 5 mM CaCl2, 0.005% Brij-35. Anisotropy values were calculated and converted to fraction bound values as described in the data analysis section below. […] The equilibrium dissociation constant was determined to be 60+/−2.9 nM. […]

[2] = molecular target: T1, recombinant human Aggrecanase-2 Agg2-Phe628; assay: Aggrecanase 2 in vitro enzyme assay (Agg-2 FRET, quenched fluorescent peptide substrate); assay type: biochemical; parameters: purified recombinant human Aggrecanase-2 Agg2-Phe628 (MW=41,737); This is a truncated form of full-length human aggrecanase-2; made in house; host or cells: CHO cells; details: established value of positive control; read-out: IC50 for rAgg-2
Method in brief: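 Kinetic fluorescence (λex 340, λem 420 nm) monitored over 40 min at 30 °C after adding 25 μM final Abz/Dnp brevican-based quenched peptide. Enzyme: recombinant truncated human Agg2-Phe628 from CHO, 0.5 μg/ml final, mixed with inhibitor first; buffer HEPES pH 7.5 with NaCl, CaCl2, CHAPS, glycerol; compounds in duplicate.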

| Ki ([1]; established value of positive control, read-out: Ki for rAgg-2) [nM] | IC50 [2] [nM] | Kd ([1]; saturation experiment, 2 nM ligand, read-out: equilibrium dissociation constant between Aggrecanase-2 and fluorescent ligand) [nM] | SMILES |
| --- | --- | --- | --- |
| 39 | 37 |  | CN([C@H](CCCCNC(=O)OC(C)(C)C)C(=O)NO)S(=O)(=O)c1ccc(OCc2ccccc2)cc1 [Compound B, reference compound] |
|  |  | 60 | CN([C@H](CCCCCNC(=O)c1ccc(-c2c3cc(F)c(=O)cc-3oc3cc(O)c(F)cc23)c(C(=O)O)c1)C(=O)NO)S(=O)(=O)c1ccc(OCc2ccccc2)cc1 [Compound C] |
